Data taken from patent US20260069584A1, “METHODS OF TREATING CHRONIC MYELOID LEUKEMIA USING THE TYROSINE KINASE INHIBITOR VODOBATINIB” (Sun Pharma Advanced Research Company Ltd., priority 2022, published 2026).

Experiment: Part B: safety, treatment-emergent adverse events, DLT and MTD
Type: in vivo
From the text: For the purpose of the present invention, the adverse events were graded as per the National Cancer Institute's, Common Terminology Criteria for Adverse Events (NCI-CTCAE) Version 4.03 and Version 5.0 (https://evs.nci.nih.gov/ftp1/CTCAE/About.html). It is a descriptive terminology which can be utilized for Adverse Event (AE) reporting.
AEs were graded as per NCI-CTCAE Version 5.0. In the present study, along with others most common AEs for which patients were monitored were thrombocytopenia, neutropenia and anemia, any AE reported by the patient after the completion of AE collection period and considered related to the study drug was reported.
Dose Limiting Toxicity (DLT) is defined as the occurrence of any of the following unless clearly and incontrovertibly related to the underlying disease. The hematological DLTs were defined as per the Phase of CML: • a) Grade 3 or higher, or other non-hematological toxicity, including nausea, vomiting and diarrhea, and refractory to standard antiemetic therapy except alopecia and nail disorders; • b) Missed ≥25% of doses over 28 days due to toxicity in Cycle 1; and • c) Any grade of toxicity requiring dose reduction or discontinuation of IMP within the 28-days DLT assessment period (Cycle 1).
Safety Parameters: Parts B and C: Descriptive summaries were provided for the safety variables collected. Continuous variables were summarized using mean, standard deviation, minimum, median, and maximum. Categorical variables were summarized using frequency counts and percentages. For time-to-event variables, other percentiles were presented. In addition, summaries of AEs by intensity, seriousness, frequency, and relationship to IMP are presented. Adverse events (AE) s were coded using the Medical Dictionary for Regulatory Activities (MedDRA) and summarized by System Organ Class (SOC) and Preferred Term (PT).
In this study, the dose-escalation cohort started with an accelerated titration study design (ATD) and shifted to a 3±3 design when subjects in the preceding ATD cohort experienced either grade 2 or higher adverse events (AEs) or dose-limiting toxicity (DLT) during Cycle 1 that was not clearly and incontrovertibly related to the underlying disease or concomitant medications. The DLT period consisted of 28 days (Cycle 1). Subjects experiencing DLTs were managed with dose delays and/or discontinuation and continued in the study until disease progression. Decisions to advance to a succeeding dose level occurred after the evaluation of safety and tolerability data for a given dose level.
For the cohorts, where the 3±3 design applies, 3 subjects were enrolled initially. If 2 of these subjects experienced a Grade 2 or more toxicity (that was not clearly and incontrovertibly related to the underlying disease or concomitant medications), subsequent cohorts were escalated according to smaller increments. Further, if there were no DLTs in the first 3 subjects, dose escalation to the next higher dose level was allowed to proceed. If 1 of the 3 subjects experienced a DLT, that dose level was expanded to 6 subjects (3 additional subjects were enrolled). If 2 subjects at a given dose level experienced a DLT, the MTD was considered to have been exceeded. The next lower dose level was expanded to 6 subjects, or if 6 subjects had already been enrolled and no more than 1 of the 6 subjects experienced a DLT, then this lower dose level was considered the MTD. Additional subjects were enrolled in dose escalation cohorts for further assessment of safety and efficacy of the compound of Formula 1 at doses that were tolerated (i.e., doses that have <2 DLTs in 6 enrolled subjects or <1 DLT in 3 enrolled subjects). Thus 204 mg was arrived at as MTD. A subject experiencing a DLT was allowed to continue therapy with a reduced dose. Subjects who experienced a DLT and recovered were treated at the next lower dose level until disease progression or other events requiring further dose reduction existed. […]

Structure (SMILES): Cc1ccc(C(=O)NNC(=O)c2c(C)cccc2Cl)cc1C#Cc1cnc2ccccc2c1 [compound of Formula I, N′-(2-chloro-6-methylbenzoyl)-4-methyl-3-[2-(3-quinolyl)ethynyl]-benzohydrazide]
- grade 3 or 4 AEs (6 patients, prior 2 TKI treatments): 33.4%
- AEs leading to permanent discontinuation (6 pts): 11.3%
- discontinued from the study due to AE (10 subjects, dose expansion at 174 mg): 1 subject
- grade 3 or 4 AEs (19 patients treated with ponatinib): 86.3%
- grade 3 or 4 AEs (28 patients, 3 or more TKI treatments): 80%
- discontinued due to disease progression (41 subjects, dose escalation): 4 subjects
- discontinued due to AEs (41 subjects, dose escalation (1 each at 48, 126, 174 and 204 mg)): 4 subjects
- discontinued from the study (41 subjects, dose escalation cohorts): 11 subjects
- All TEAEs, Any grade (Overall (N = 53)): 51 No of pts
- All TEAEs, Grade 3/4 (Overall (N = 53)): 34 No of pts
- Amylase increased, Any grade (Overall (N = 53)): 5 No of pts
- Amylase increased, Grade 3/4 (Overall (N = 53)): 4 No of pts
- Anemia, Any grade (Overall (N = 53)): 11 No of pts
- Anemia, Grade 3/4 (Overall (N = 53)): 7 No of pts
- Back pain, Any grade (Overall (N = 53)): 7 No of pts
- Back pain, Grade 3/4 (Overall (N = 53)): 0 No of pts
- Constipation, Any grade (Overall (N = 53)): 8 No of pts
- Constipation, Grade 3/4 (Overall (N = 53)): 0 No of pts
- Cough, Any grade (Overall (N = 53)): 11 No of pts
- Cough, Grade 3/4 (Overall (N = 53)): 0 No of pts
- Death, Grade 3/4 (Overall (N = 53)): 0 No of pts
- Decreased appetite, Any grade (Overall (N = 53)): 6 No of pts
- Decreased appetite, Grade 3/4 (Overall (N = 53)): 0 No of pts
- Diarrhoea, Any grade (Overall (N = 53)): 12 No of pts
- Diarrhoea, Grade 3/4 (Overall (N = 53)): 1 No of pts
- Fatigue, Any grade (Overall (N = 53)): 7 No of pts
- Fatigue, Grade 3/4 (Overall (N = 53)): 0 No of pts
- Headache, Any grade (Overall (N = 53)): 8 No of pts
- Headache, Grade 3/4 (Overall (N = 53)): 0 No of pts
- Lipase increased, Any grade (Overall (N = 53)): 5 No of pts
- Lipase increased, Grade 3/4 (Overall (N = 53)): 4 No of pts
- Myalgia, Any grade (Overall (N = 53)): 7 No of pts
- Myalgia, Grade 3/4 (Overall (N = 53)): 0 No of pts
- Nasopharyngitis, Any grade (Overall (N = 53)): 6 No of pts
- Nasopharyngitis, Grade 3/4 (Overall (N = 53)): 0 No of pts
- Nausea, Any grade (Overall (N = 53)): 8 No of pts
- Nausea, Grade 3/4 (Overall (N = 53)): 0 No of pts
- Neutropenia, Any grade (Overall (N = 53)): 8 No of pts
- Neutropenia, Grade 3/4 (Overall (N = 53)): 7 No of pts
- Pruritis, Any grade (Overall (N = 53)): 6 No of pts
- Pruritis, Grade 3/4 (Overall (N = 53)): 0 No of pts
- Pyrexia, Any grade (Overall (N = 53)): 8 No of pts
- Pyrexia, Grade 3/4 (Overall (N = 53)): 1 No of pts
- Rhinitis, Any grade (Overall (N = 53)): 6 No of pts
- Rhinitis, Grade 3/4 (Overall (N = 53)): 0 No of pts
- SAEs, Any grade (Overall (N = 53)): 20 No of pts
- SAEs, Grade 3/4 (Overall (N = 53)): 12 No of pts
- TEAEs Leading to drug withdrawal, Any grade (Overall (N = 53)): 6 No of pts
- TEAEs Leading to drug withdrawal, Grade 3/4 (Overall (N = 53)): 2 No of pts
- TEAEs Related to comp of Formula I, Any grade (Overall (N = 53)): 35 No of pts
- TEAEs Related to comp of Formula I, Grade 3/4 (Overall (N = 53)): 14 No of pts
- TEAEs: Dose discontinued and restarted, Any grade (Overall (N = 53)): 20 No of pts
- TEAEs: Dose discontinued and restarted, Grade 3/4 (Overall (N = 53)): 12 No of pts
- TEAEs: Dose modifications, Any grade (Overall (N = 53)): 11 No of pts
- TEAEs: Dose modifications, Grade 3/4 (Overall (N = 53)): 6 No of pts
- Thrombocytopenia, Any grade (Overall (N = 53)): 22 No of pts
- Thrombocytopenia, Grade 3/4 (Overall (N = 53)): 10 No of pts
- Vomiting, Any grade (Overall (N = 53)): 7 No of pts
- Vomiting, Grade 3/4 (Overall (N = 53)): 0 No of pts
- All TEAEs, Any grade (Prior Ponatinib (N = 22)): 22 No of pts
- All TEAEs, Grade 3/4 (Prior Ponatinib (N = 22)): 19 No of pts
- Amylase increased, Any grade (Prior Ponatinib (N = 22)): 3 No of pts
- Amylase increased, Grade 3/4 (Prior Ponatinib (N = 22)): 2 No of pts
- Anemia, Any grade (Prior Ponatinib (N = 22)): 6 No of pts
- Anemia, Grade 3/4 (Prior Ponatinib (N = 22)): 4 No of pts
- Back pain, Any grade (Prior Ponatinib (N = 22)): 3 No of pts
- Back pain, Grade 3/4 (Prior Ponatinib (N = 22)): 0 No of pts
- Constipation, Any grade (Prior Ponatinib (N = 22)): 3 No of pts
- Constipation, Grade 3/4 (Prior Ponatinib (N = 22)): 0 No of pts
- Cough, Any grade (Prior Ponatinib (N = 22)): 5 No of pts
- Cough, Grade 3/4 (Prior Ponatinib (N = 22)): 0 No of pts
- Death, Any grade (Prior Ponatinib (N = 22)): 2 No of pts
- Death, Grade 3/4 (Prior Ponatinib (N = 22)): 0 No of pts
- Decreased appetite, Any grade (Prior Ponatinib (N = 22)): 3 No of pts
- Decreased appetite, Grade 3/4 (Prior Ponatinib (N = 22)): 0 No of pts
- Diarrhoea, Any grade (Prior Ponatinib (N = 22)): 7 No of pts
- Diarrhoea, Grade 3/4 (Prior Ponatinib (N = 22)): 1 No of pts
- Fatigue, Any grade (Prior Ponatinib (N = 22)): 4 No of pts
- Fatigue, Grade 3/4 (Prior Ponatinib (N = 22)): 0 No of pts
- Headache, Any grade (Prior Ponatinib (N = 22)): 4 No of pts
- Headache, Grade 3/4 (Prior Ponatinib (N = 22)): 0 No of pts
- Lipase increased, Any grade (Prior Ponatinib (N = 22)): 2 No of pts
- Lipase increased, Grade 3/4 (Prior Ponatinib (N = 22)): 2 No of pts
- Myalgia, Any grade (Prior Ponatinib (N = 22)): 2 No of pts
- Myalgia, Grade 3/4 (Prior Ponatinib (N = 22)): 0 No of pts
- Nasopharyngitis, Any grade (Prior Ponatinib (N = 22)): 2 No of pts
- Nasopharyngitis, Grade 3/4 (Prior Ponatinib (N = 22)): 0 No of pts
- Nausea, Any grade (Prior Ponatinib (N = 22)): 7 No of pts
- Nausea, Grade 3/4 (Prior Ponatinib (N = 22)): 0 No of pts
- Neutropenia, Any grade (Prior Ponatinib (N = 22)): 3 No of pts
- Neutropenia, Grade 3/4 (Prior Ponatinib (N = 22)): 2 No of pts
- Pruritis, Any grade (Prior Ponatinib (N = 22)): 4 No of pts
- Pruritis, Grade 3/4 (Prior Ponatinib (N = 22)): 0 No of pts
- Pyrexia, Any grade (Prior Ponatinib (N = 22)): 4 No of pts
- Pyrexia, Grade 3/4 (Prior Ponatinib (N = 22)): 1 No of pts
- Rhinitis, Any grade (Prior Ponatinib (N = 22)): 4 No of pts
- Rhinitis, Grade 3/4 (Prior Ponatinib (N = 22)): 0 No of pts
- SAEs, Any grade (Prior Ponatinib (N = 22)): 10 No of pts
- SAEs, Grade 3/4 (Prior Ponatinib (N = 22)): 7 No of pts
- TEAEs Leading to drug withdrawal, Any grade (Prior Ponatinib (N = 22)): 2 No of pts
- TEAEs Leading to drug withdrawal, Grade 3/4 (Prior Ponatinib (N = 22)): 2 No of pts
- TEAEs Related to comp of Formula I, Any grade (Prior Ponatinib (N = 22)): 15 No of pts
- TEAEs Related to comp of Formula I, Grade 3/4 (Prior Ponatinib (N = 22)): 7 No of pts
- TEAEs: Dose discontinued and restarted, Any grade (Prior Ponatinib (N = 22)): 12 No of pts
- TEAEs: Dose discontinued and restarted, Grade 3/4 (Prior Ponatinib (N = 22)): 7 No of pts
- TEAEs: Dose modifications, Any grade (Prior Ponatinib (N = 22)): 8 No of pts
- TEAEs: Dose modifications, Grade 3/4 (Prior Ponatinib (N = 22)): 4 No of pts
- Thrombocytopenia, Any grade (Prior Ponatinib (N = 22)): 7 No of pts
- Thrombocytopenia, Grade 3/4 (Prior Ponatinib (N = 22)): 3 No of pts
- Vomiting, Any grade (Prior Ponatinib (N = 22)): 4 No of pts
- Vomiting, Grade 3/4 (Prior Ponatinib (N = 22)): 0 No of pts
- Cough (any grade): 20.8%
- anemia (any grade): 20.8%
- diarrhea (any grade): 22%
- thrombocytopenia (any grade): 41.5%
